SMILES strings stand for the structures. Like-named read-outs stand apart in the source and are kept apart here.

For one data set, the target named is T1, human OCT1 (Homo sapiens, UniProt O15245).
T1 sequence (O15245 1-554): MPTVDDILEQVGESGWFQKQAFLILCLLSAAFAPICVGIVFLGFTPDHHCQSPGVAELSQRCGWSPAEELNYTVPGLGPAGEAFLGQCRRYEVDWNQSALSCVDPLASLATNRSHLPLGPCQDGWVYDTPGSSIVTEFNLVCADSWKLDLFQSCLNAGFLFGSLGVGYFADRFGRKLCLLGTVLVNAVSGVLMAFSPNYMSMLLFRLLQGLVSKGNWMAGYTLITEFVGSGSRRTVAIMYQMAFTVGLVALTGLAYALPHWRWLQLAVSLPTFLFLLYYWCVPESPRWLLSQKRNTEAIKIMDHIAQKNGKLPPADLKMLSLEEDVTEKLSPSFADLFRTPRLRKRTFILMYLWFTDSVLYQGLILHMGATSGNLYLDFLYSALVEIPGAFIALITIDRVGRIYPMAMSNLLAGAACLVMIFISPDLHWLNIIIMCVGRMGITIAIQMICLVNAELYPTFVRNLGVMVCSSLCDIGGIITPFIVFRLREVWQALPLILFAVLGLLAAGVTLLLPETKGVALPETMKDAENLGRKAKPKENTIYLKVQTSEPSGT
In words: Inhibition of OCT1-mediated metformin uptake in stably transfected HEK cells. It is filed as cell-based. Conditions: for IC50: 5 µM [14C]metformin uptake, 5 min, HEK-OCT1, means ± SE of 3 experiments. How it is done:
SLC22A1 cDNA and SLC22A2 cDNA had been PCR-amplified from human liver and kidney, respectively, as reported elsewhere and cDNAs were provided by the German Cancer Research Center; the study and the use of the tissue were approved by the institutional review board of the German Cancer Center, Heidelberg, Germany. Since the data were analyzed anonymously, and tissues were left-over samples from diagnostic procedures, written informed consent had not been required and obtained. IRB specifically waived the need for consent due to the fact the human tissue material used was fully anonymized. SLC22A3 cDNA was amplified using SLC22A3-TrueClone (Origene, Rockville, MD, USA) as the template. SLC22A1 cDNA was cloned into the expression vector pcDNA3.1/Hygro(-) (Invitrogen, Darmstadt, Germany), SLC22A2 and SLC22A3 cDNA into pcDNA3.1(+) (Invitrogen). […] HEK cells were grown in DMEM (Sigma) supplemented with 10% fetal bovine serum (Sigma), 100 U⋅ml^−1 penicillin, and 100 µg⋅ml^−1 streptomycin (Lonza, Basel, Switzerland) at 37°C and 5% CO2. HEK cells were transfected with Metafectene Pro (Biontex, München, Germany). Selection of clones stably expressing OCT1 was carried out with 0.5 mg⋅ml^−1 hygromycin as described. Similarly, clones stably expressing OCT2 or OCT3 were selected with 800 µg⋅ml^−1 G418. HEK cells stably transfected with the empty pcDNA3.1(+) vector served as controls (HEK-Co). Cells were incubated with 5 mM butyrate 24 h before use to increase protein levels of recombinant transporters.
HEK cells (400000 cells/well) were seeded into 24-well cell culture plates (Greiner Bio-One, Frickenhausen, Germany) and grown for 48 h. Cell adherence was improved by coating plates with poly-L-lysine (Biochrom AG, Berlin, Germany) prior to cell plating. All uptake studies were carried out at 37°C as described. […] Uptake was stopped at indicated time points by removing the uptake buffer and immediately washing the cells 3 times with ice-cold uptake buffer. Cells were lysed with 0.2% SDS and intracellular radioactivity was determined by liquid scintillation counting (Hidex 300SL TDCR liquid scintillation counter, Turku, Finland).
OCT-specific metformin uptake was obtained by subtracting metformin uptake in the presence of 2 mM unlabeled 1-methyl-4-phenylpyridinium (MPP) from that in its absence. […] OCT-specific metformin uptake in the presence of a PPI was then calculated as percentage of that in the absence of the respective PPI (100% uninhibited). For each PPI concentration, 3 individual experiments each with 3 parallel measurements were performed. Apparent IC50 values for inhibition of metformin uptake by PPIs were calculated for each individual experiment by fitting the values to the Hill equation using GraphPad Prism 4 (GraphPad Software Inc., La Jolla, CA, USA). Values in Table 1 are given as the means ± SE of the 3 individual experiments.

Data set [1] can be described thus: Pharmacokinetic data of PPIs in humans. It is filed as in vivo. Particulars: maximal total concentration in portal venous blood.
For data set [2] the following is noted: humans, maximal total concentration in systemic circulation, cited from earlier work.
Details of data set [3]: method as in earlier work. Conditions: computed property from PubChem Compound database; cited from earlier work.
For another data set, the system named is OCT1. Set-up: method as in PMID 21103969. Conditions: transport substrate; cited from earlier work.
A further data set relates to OCT2. Set-up: method as in PMID 21103969. Conditions: transport substrate; cited from earlier work.
In the next data set the test system is OCT3. Set-up: method as in PMID 21103969. Particulars: transport substrate; cited from earlier work.

Take `Cc1c(OCC(F)(F)F)ccnc1C[S+]([O-])c1nc2ccccc2[nH]1` (stereo not drawn) [Lansoprazole]: on human OCT1, it took 35.8 ± 5.8 µM to reach half-maximal inhibition (IC50). For the same compound, the “Calculated Cport.vn.” value in data set [1] (equation 1 in ref 56, dosage 30 mg (81 µmol)) is given as 7.8 µM. The Cmax (as a rule, the highest concentration seen after dosing) in data set [2] (dosage 30 mg (81 µmol)) was 2700 nM. In data set [3], the Heavy atom count is 25 and the Tautomer count is reported as 0.

Consider `C[n+]1ccc(-c2ccccc2)cc1` [MPP, 1-methyl-4-phenylpyridinium], for which, on human OCT1 (5 µM metformin, 2 mM unlabeled MPP), the “Metformin uptake by HEK-OCT1 in the presence of MPP” value is “almost completely absent”. Also, the Km – broadly, the substrate concentration at which the rate is half of its maximum – in the data set with OCT1 is 15 to 32 µM; in the data set with OCT2 it was 3 to 19 µM; in the data set on OCT3, 47 to 83 µM.

As for `COc1ccc2[nH]c([S+]([O-])Cc3ncc(C)c(OC)c3C)nc2c1` (stereo not drawn) [Omeprazole], the IC50 (as a rule, the midpoint of a concentration-inhibition curve) on human OCT1 was 15.7 ± 3.8 µM. For the same compound, in data set [1] (equation 1 in ref 56, dosage 20 mg (58 µmol)), the “Calculated Cport.vn.” value is on record as 5.4 µM. In data set [2] (dosage 20 mg (58 µmol)), the Cmax was 1800 nM. Also, in data set [3], the Heavy atom count is given as 24 and the Tautomer count is 2.

Regarding `COc1ccnc(C[S+]([O-])c2nc3ccc(OC(F)F)cc3[nH]2)c1OC` (stereo not drawn) [Pantoprazole], at human OCT1, the IC50 came out at 30.8 ± 8.8 µM. In data set [1] (equation 1 in ref 56, dosage 40 mg (104 µmol)), the “Calculated Cport.vn.” value was 12.0 µM. For the same compound, in data set [2] (dosage 40 mg (104 µmol)), the Cmax was 5500 nM. Besides, in data set [3], the Heavy atom count is reported as 26 and the Tautomer count is given as 2.

As to `COCCCOc1ccnc(C[S+]([O-])c2nc3ccccc3[nH]2)c1C` (stereo not drawn) [Rabeprazole], it took 3 ± 1.7 µM to reach half-maximal inhibition at human OCT1 (IC50). The “OCT1-mediated metformin uptake at low PPI concentrations” value on human OCT1 (low concentrations of PPI, Figure 3) is “activated”. The “Calculated Cport.vn.” value in data set [1] (equation 1 in ref 56, dosage 20 mg (56 µmol)) is given as 4.7 µM. The Cmax in data set [2] (dosage 20 mg (56 µmol)) was 1200 nM. For the same compound, in data set [3], the Heavy atom count was 25 and the Tautomer count is reported as 0.

On to `COc1ccc2[nH]c([S+]([O-])Cc3ncc(C)c(OC)c3C)nc2n1` (stereo not drawn) [Tenatoprazole], for which, at human OCT1, half-maximal inhibition (IC50) was put at 23.3 ± 7.1 µM. Also, in data set [1] (equation 1 in ref 56, dosage 40 mg (116 µmol)), the “Calculated Cport.vn.” value is 17.2 µM. In data set [2] (dosage 40 mg (116 µmol)), the Cmax is 10000 nM. In addition, in data set [3], the Heavy atom count is 24 and the Tautomer count is 3.

Source of the values: PMC3136501 (PLoS ONE, 2011).
